In patent publication US5041581A (priority 1986, dated 1991):

What was measured:
L1210 mouse leukemia = assay: In vivo antitumor activity against L1210 mouse leukemia (L1210-BDF1 mouse model); set-up: species or system BDF1 mice; settings: for Optimal dose: L1210 ip/ip, single dose
Method: BDF1 mice were purchased from Charles River (Wilmington, MA). Groups of 6-8 mice weighing 18-22 gm were inoculated ip with 1×10^6 L1210 leukemia cells on day 0. L1210 cells were kept in DBA2 mice were weekly passages between the different experiments. All L-PT preparations were injected ip in volumes of 0.1 to 0.3 ml 24 hours after tumor inoculation. Two different schedules of administration were used: a single injection on day 1 or an injection on days 1, 5 and 9 (multiple). […] Clinical behavior and survival times were monitored until all animals had died. Results were expressed as % T/C (median survival time of treated mice/median survival time of control mice ×100) and number of long-term survivors. Mice living more than 30 days and more than 60 days were considered to be long-term survivors for the single and multiple injection schedule respectively. All L-PT preparations tested for antitumor activity were prepared under sterile conditions on the same day of the experiment.
The antitumor activity against L-1210 murine leukemia of the different L-PT analogs was assessed in an L-1210-BDF, mouse model (tumor inoculation day 0, treatment day 1, ip) as described earlier herein.
These liposome-encapsulated compounds were tested to determine their optimal dose and effectiveness as inhibitors of in vivo tumor growth as described in Example 12.

[1] = Stability of L-PT in 0.9% saline at 4° C. for 14 days; type: physicochemical; settings: for Stability % (PT remaining in the liposomes): 0.9% saline, 4° C., DMPC:DMPG 7:3; for stability compared with Pt cyclopentenecarboxylato-racemic-DACH, in words: saline
Method: The stability of the different liposome-PT (L-PT) preparations in 0.9% NaCl solution at 4° C., and 50% human (AB) serum in 0.9% NaCl solution at 37° C. was determined using the following formula: [formula]
The EE values used in the stability determinations were obtained by measuring PT in the supernatants by UV spectrophotometry (0.9% NaCl solution) or x-ray fluorescence (50% human AB serum). The stability in 0.9% NaCl solution was determined up to 14 days after the initial preparation. In addition, the L-PT preparations were observed microscopically on day 14 to check the morphology of the vesicles. The stability in 50% human AB serum was determined up to 18 hours after incubation.
Preparations were suspended in 0.9% saline and incubated at 4° C. for 14 days. The liposome compositions were observed by light microscopy and the amount of free PT in the saline determined. […] Free PT was determined and stability was calculated as the percentage PT remaining in the liposomes.

[2] = Nephrotoxicity: blood urea nitrogen (BUN) 96 hours after ip LD50 dose; type: in vivo, CD1 Swiss mice; settings: for BUN at 96 hours: ip single injection at LD50 dose
Method: All L-PT preparations tested for toxicity were prepared under sterile conditions on the same day of the experiments.

L1210 cells = assay: In vitro growth inhibition of L1210 leukemic cells (96 hours, Coulter Counter); type: cell-based, murine; settings: Exp. 1; 5760 min
Method: Four ml of cell suspension were added to culture tubes and the appropriate concentration of free PT or L-PT was added (from 0.01 micro g/ml to 10 micro g/ml final concentration). After 96 hours, the cell concentration of control and experimental cultures were calculated with a Coulter Counter (Coulter Electronics, Hialeah, FLA) and the percent inhibition calculated. The following preparations were tested: free PT, DMPG, DMPC:DMPG 7:3, DMPG-PT and DMPC:DMPG 7:3-PT.

[3] = Acute toxicity (LD10, LD50, LD90) in CD-1 Swiss mice; type: in vivo
Method: Toxicology studies were carried out in 6-8 weeks old CD-1 Swiss mice weighing 22-25 gm and purchased from The University of Texas Science Park (Bastrop, TX). Free PT in suspension in hydroxypropylcellulose, DMPG, DMPG-PT, DMPC:DMPG 7:3 and DMPC:DMPG 7:3-PT were administered intraperitoneally (ip) in volumes ranging between 0.1 and 0.3 ml. DMPC:DMPG 7:3-PT was also administered intravenously (iv) in one single injection or in 3 daily injections. The clinical behavior and the survival times were monitored on a daily basis.

[4] = Encapsulation efficiency of platinum complexes in multilamellar liposomes (UV spectrophotometry / x-ray fluorescence); type: physicochemical; settings: for Encapsulation Efficiency: lipophilic cisplatin analogues incorporated in liposomes (Table 12); for % Encapsulation Efficiency: liposomes DMPC:DMPG 7:3, mean of at least three experiments
Method: Multilamellar lipid vesicles (MLV) or liposomes containing incorporated platinum complexes (PT) of the above descriptions were prepared as previously described for other compounds (Lopez-Berestein et al (4)(1984) Clin. Exp. Metastasis V 2 pp 127-137 and Lopez-Berestein et al (1983) J Inf Dis V 147 pp 937-945). In brief, chloroform solutions of lipids (at the desired molar ratio) and PT were mixed at a lipid-PT ratio of 15:1 and the chloroform was evaporated in a rotary evaporator (Buchi, Brinkmann Instruments, Westbury, NY). The dried lipid film obtained, containing PT, was then dispersed with an aqueous solution (0.9% NaCl in water) by vigorous handshaking. The suspension was subsequently centrifuged at 30,000 ×g for 45 minutes, the supernatant was discarded, and the pellet containing PT was resuspended in 0.9% NaCl solution.
Elemental platinum (Pt) was determined in the liposome suspension and the pellet by x-ray fluorescence as previously reported (Seifert et al (1979) Proc. Amer. Ass'n. Cancer Res. V 20 p. 168) in the Department of Analytical Chemistry, The University of Texas Medical School at Houston, TX. The amount of platinum complex (PT) was determined in the supernatant by ultraviolet (UV) spectrophotometry using a wavelength of 224 nm. The EE was initially calculated with the two following formulas:
1. EE =Pt in pellet/total Pt in the initial liposome suspension
2. EE =Total Pt initially added - Pt in supernatant/total Pt initially added
The encapsulation efficiency for Pt-cyclopentenecarboxylato racemic-DACH was 66%. […] The encapsulation efficiency for Pt-neodecanoato-racemic-DACH, Pt-neodecanoatotrans-RR-DACH, Pt-n-decyliminodiacetato racemic DACH complexes are presented in Table I, shown below.
The compounds prepared in Examples 14-19 were tested for their efficiency of encapulation in liposomes by the methods described in Example 6. These liposome-encapsulated compounds were tested to determine their optimal dose and effectiveness as inhibitors of in vivo tumor growth as described in Example 12. The data in Table 12 reveal the resultant measurements.

[5] = Solubility in organic solvents and water; type: physicochemical; settings: for solubility in methanol and chloroform, in words: chloroform (and other organic solvents where stated)
[6] = 25 mg/kg ip day 1, liposomes DMPC:DMPG 7:3 (Table 8)
[7] = L1210 ip/ip single dose at the optimal dose, incorporated in liposomes (Table 12)
[8] = incorporated in liposomes (Table 12)

Row | Compound | % T/C (L1210 mouse leukemia; [6]) [%] | Stability % (PT remaining in the liposomes) [1] [%] | % T/C (L1210 mouse leukemia; [7]) [%] | Optimal dose (L1210 mouse leukemia; [8]) [mg/kg] | Encapsulation Efficiency [4] [%] | solubility in methanol and chloroform, in words [5] | solubility in water, in words [5] | also measured
1 | CCCCCCCCCCN1CC(=O)[O][Pt]2([NH]C3CCCCC3[NH]2)[O]C(=O)C1 (mixture of isomers) [Pt-N-decyliminodiaceto-racemic-DACH mixture, cis-bis-n-decyliminodiaceto-DACH-platinum (II)] | 150 | 100 |  |  |  |  |  | 
2 | O=C([O][Pt]1([O]C(=O)C2=CCCC2)[NH]C2CCCCC2[NH]1)C1=CCCC1 (mixture of isomers) [Pt-cyclopentenecarboxylato racemic-DACH mixture, cis-bis-cyclopentenecarboxylato-1,2-DACH-platinum (II)] | 213 | 89 |  |  |  |  |  | % T/C (L1210 mouse leukemia; 6.25 mg/kg × 3 ip, days 1, 5 and 9): 168%; % T/C, mean (L1210 mouse leukemia; 12.5 mg/kg and 25 mg/kg, single ip dose, means of three experiments): 162%; % T/C (L1210 mouse leukemia; 12.5 mg/kg ip day 1, Exp. 1): 173%; % T/C (L1210 mouse leukemia; 12.5 mg/kg ip day 1, Exp. 2): 136%; % T/C (L1210 mouse leukemia; 12.5 mg/kg ip day 1, Exp. 3): 179%; % T/C (L1210 mouse leukemia; 12.5 mg/kg × 3 ip, days 1, 5 and 9): 284%; % T/C (L1210 mouse leukemia; 25 mg/kg ip day 1, Exp. 3): 168%; % T/C (L1210 mouse leukemia; 25 mg/kg × 3 ip, days 1, 5 and 9): 158%; BUN at 96 hours ([2]; listed as Free PT): 34.4 ± 9.6 mg %; BUN at 96 hours ([2]; listed as PT in suspension in hydroxypropylcellulose): 34.4±9.6 mg %; BUN elevation, in words ([2]; ip, LD50 dose, 96 hours): no significant BUN elevations; ID50 (L1210 cells): 1.3 micro g/ml; LD50 Dose ([3]; ip single injection (Table 4, CD1 mice), 20160 min): 91 mg/kg; LD10 ([3]; ip × 1): 61 mg/kg; LD90 ([3]; ip × 1): 125 mg/kg; LD50 ([3]; ip × 1, 20160 min): 91 mg/kg
3 | CCCCCCCCCCN1CC(=O)[O][Pt]2([NH][C@@H]3CCCC[C@H]3[NH]2)[O]C(=O)C1 [Pt-N-decyliminodiacetato-trans-RR-DACH, cis-bis-n-decyliminodiacetato-trans-RR-DACH-Pt (II)] | 162 | 100 |  |  |  |  |  | 
4 | O=C([O][Pt]1([O]C(=O)C2=CCCC2)[NH][C@@H]2CCCC[C@H]2[NH]1)C1=CCCC1 [Pt-cyclopentenecarboxylato trans-RR-DACH, cis-bis-cyclopentenecarboxylato-1,2-trans-RR-DACH-Pt (II)-3H2 O] | 187 | 94 |  |  |  |  |  | stability compared with Pt cyclopentenecarboxylato-racemic-DACH, in words [1]: greater stability
5 | O=C([O][Pt]1([O]C(=O)C2=CCCC2)[NH][C@H]2CCCC[C@@H]2[NH]1)C1=CCCC1 [Pt-cyclopentenecarboxylato trans-SS-DACH] | 155 |  |  |  |  |  |  | 
6 | CCCCCCCCCC(=O)[O][Pt]1([O]C(=O)CCCCCCCCC)[NH][C@@H]2CCCC[C@H]2[NH]1 [cis-bis-decanoato-trans-R,R-1,2-diaminocyclohexane-platinum II] |  |  | 187 | 50 |  |  |  | 
7 | Cis-bis-neodecanoato-trans-R,R-1,2-diaminocyclohexane-platinum |  |  | 170 | 25 | 93 |  |  | 
8 | cis-bis-neodecanoato-RR-DACH-Platinum (II) [Pt-neodecanoato-trans-RR-DACH] | 175 | 99 |  |  |  |  |  | % Encapsulation Efficiency [4]: 99%
9 | cis-bis-neodecanoato-bis-cyclohexylamine-platinum (II) |  |  | 125 | 100 | 89 | highly soluble | insoluble | 
10 | cis-bis-neodecanoato-bis-diamine-platinum (II) |  |  | 200 | 50 | 95 | highly soluble | insoluble | 
11 | cis-bis-neodecanoato-bis-isopropylamine-platinum (II) |  |  | 150 | 100 | 87 | highly soluble | insoluble | 
12 | cis-bis-neodecanoato-ethylenediamine-platinum(II) |  |  | 144 | 75 |  |  |  | 
13 | cis-bis-neodecanoatoDACH-platinum II [Pt-neodecanoato-racemic DACH-mixture] |  | 100 |  |  |  | highly soluble | insoluble | % T/C (L1210 mouse leukemia; 50 mg/kg ip day 1, liposomes DMPC:DMPG 7:3 (Table 8)): 187%; stability compared with Pt cyclopentenecarboxylato-racemic-DACH, in words [1]: greater stability; % Encapsulation Efficiency [4]: 99%
